The values that follow come from ChEMBL document CHEMBL6087459 (J Med Chem, 2025).

Some results are limits rather than exact numbers.

One data set has as its system Cryptosporidium parvum. Kind of data set: Antiparasitic activity against Cryptosporidium parvum Iowa oocyst infected in human HCT-8 cells assessed as reduction in asexual replication pre-infected with cells for 3 hrs followed by compound addition and measured after 48 hrs by staining based automated fluorescence microscopic analysis. Type of data set: functional, organism-based.

In another data set the test system is HCT-8. The experiment in a line: Cytotoxicity against human HCT-8 cells assessed as reduction in cell numbers upto 50 uM incubated for 48 hrs by high-density microscopic celltiter aqueous assay. In kind it is toxicity, cell-based. The settings on record: hct-8, 48 h.

Turning to `CCc1nn(C)c2nc(-c3ccc4c(c3)OCO4)nc(NCc3ccc(F)cc3)c12`, the EC50 in the data set on Cryptosporidium parvum was more than 50 µM. In addition, the Activity entry with HCT-8 is given as “Non-toxic”.

`CCc1nn(C)c2nc(-c3cccc(C(=O)O)c3)nc(NCc3ccc(F)cc3)c12`: the EC50 in the data set with Cryptosporidium parvum turned out to be 1.2 µM. Also, in the data set with HCT-8, the Activity result was “Non-toxic”.

For `CCc1nn(C)c2nc(C3=CCC(C(=O)O)CC3)nc(NCc3ccc(F)cc3)c12` (stereo not drawn), in the data set on Cryptosporidium parvum, the EC50 stood at 1.8 µM. Moreover, in the data set with HCT-8, the Activity entry is given as “Non-toxic”.

Consider `CCc1nn(C)c2nc(-c3cccc(OC)c3)nc(NCc3ccc(F)cc3)c12`, for which the EC50 in the data set with Cryptosporidium parvum stood at 15 µM. Also, in the data set with HCT-8, the Activity entry is “Non-toxic”.

Regarding `CCc1nn(C)c2nc(-c3ccc4c(O)nn(C)c4c3)nc(NCc3ccc(F)cc3)c12`, the EC50 in the data set on Cryptosporidium parvum came to 3 µM. Further, in the data set on HCT-8, the Activity result is “Non-toxic”.

For the molecule `CCc1nn(C)c2nc(-c3ccc(C(=O)O)nc3)nc(NCc3ccc(F)cc3)c12`, the half-maximal effective concentration (EC50) in the data set with Cryptosporidium parvum was 4.7 µM. Also, the Activity entry in the data set on HCT-8 is “Non-toxic”.

With `CCc1nn(C)c2nc(-c3ccc(C(N)=O)cc3)nc(NCc3ccc(F)cc3)c12`, in the data set with Cryptosporidium parvum, the EC50 was determined as 27 µM. Also, in the data set on HCT-8, the Activity entry was “Non-toxic”.

Take `CCc1nn(C)c2nc(-c3ccc(C4CCC(C(=O)O)CC4)cc3)nc(NCc3ccc(F)cc3)c12` (stereo not drawn): the EC50 in the data set with Cryptosporidium parvum was determined as 4.4 µM. In the data set on HCT-8, the Activity result was “Non-toxic”.

For the molecule `CCOC(=O)c1cccc(-c2nc(NCc3ccc(F)cc3)c3c(CC)nn(C)c3n2)c1`, in the data set on Cryptosporidium parvum, the EC50 was 5.5 µM. Also, the Activity result in the data set with HCT-8 was “Non-toxic”.

With `CCc1nn(C)c2nc(CCC(=O)O)nc(NCc3ccc(F)cc3)c12`, the EC50 in the data set with Cryptosporidium parvum amounted to 9.3 µM. Further, in the data set on HCT-8, the Activity result is recorded as “Non-toxic”.

Turning to `CCc1nn(C)c2nc(-c3ccc(P(=O)(O)O)cc3)nc(NCc3ccc(F)cc3)c12`, the concentration giving a half-maximal response (EC50) in the data set with Cryptosporidium parvum is more than 50 µM. The Activity entry with HCT-8 is recorded as “Non-toxic”.

As for `CCc1nn(C)c2nc(-c3ccc(OC)cc3)nc(NCc3ccc(F)cc3)c12`, the EC50 in the data set with Cryptosporidium parvum was 15 µM. In the data set on HCT-8, the Activity result is recorded as “Non-toxic”.

On to `CCc1nn(C)c2nc(-c3ccc(O)cc3)nc(NCc3ccc(F)cc3)c12`, for which the EC50 in the data set on Cryptosporidium parvum is 5 µM. Also, in the data set on HCT-8, the Activity entry is reported as “Non-toxic”.

On to `CCc1nn(C)c2nc(-c3ccc(Cl)c(Cl)c3)nc(NCc3ccc(F)cc3)c12`, for which the EC50 in the data set with Cryptosporidium parvum worked out at 21 µM. Further, the Activity entry with HCT-8 is reported as “Non-toxic”.

Turning to `CCc1nn(C)c2nc(-c3ccc(S(C)(=O)=O)cc3)nc(NCc3ccc(F)cc3)c12`, the EC50 in the data set on Cryptosporidium parvum was found to be 5.5 µM. The Activity entry in the data set on HCT-8 is given as “Non-toxic”.

For the molecule `CCc1nn(C)c2nc(-c3cncnc3)nc(NCc3ccc(F)cc3)c12`, the EC50 in the data set on Cryptosporidium parvum was more than 50 µM. Also, in the data set with HCT-8, the Activity result was “Non-toxic”.

For `CCc1nn(C)c2nc(-c3ccc(CC(=O)O)cc3)nc(NCc3ccc(F)cc3)c12`, in the data set with Cryptosporidium parvum, the EC50 is 9.5 µM. The Activity entry in the data set on HCT-8 was “Non-toxic”.

Take `CCc1nn(C)c2nc(-c3ccc(OC)c(OC)c3)nc(NCc3ccc(F)cc3)c12`: the EC50 in the data set on Cryptosporidium parvum came to 7.2 µM. For the same molecule, in the data set on HCT-8, the Activity result is recorded as “Non-toxic”.

For the molecule `CCc1nn(C)c2nc(-c3ccc(N4CCC(C(=O)O)CC4)cc3)nc(NCc3ccc(F)cc3)c12`, the EC50 in the data set with Cryptosporidium parvum came out at 11 µM. In the data set on HCT-8, the Activity result is “Non-toxic”.

Take `CCc1nn(C)c2nc(-c3ccc(Nc4ccc(C(=O)O)cn4)cc3)nc(NCc3ccc(F)cc3)c12`: the EC50 in the data set on Cryptosporidium parvum was 2.9 µM. Moreover, the Activity result with HCT-8 is on record as “Non-toxic”.

As to `CC(=O)Oc1ccccc1C(=O)Nc1ncc([N+](=O)[O-])s1` [NITAZOXANIDE], in the data set with HCT-8, the Activity entry is on record as “Non-toxic”.

In the case of `CCc1nn(C)c2nc(-c3ccccc3OC)nc(NCc3ccc(F)cc3)c12`, the EC50 in the data set with Cryptosporidium parvum was 7.7 µM. Also, in the data set with HCT-8, the Activity result is given as “Non-toxic”.

For the molecule `CCOC(=O)c1ccc(-c2nc(NCc3ccc(F)cc3)c3c(CC)nn(C)c3n2)cc1`, in the data set with Cryptosporidium parvum, the EC50 was more than 25 µM. For the same molecule, the Activity entry with HCT-8 is recorded as “Non-toxic”.

For the molecule `CCc1nn(C)c2nc(-c3ccc(C(=O)O)c(F)c3)nc(NCc3ccc(F)cc3)c12`, the EC50 in the data set on Cryptosporidium parvum came to 3.4 µM. The Activity result in the data set with HCT-8 is listed as “Non-toxic”.

As to `CCc1nn(C)c2nc(-c3ccc(-c4nnn[nH]4)cc3)nc(NCc3ccc(F)cc3)c12`, the EC50 in the data set on Cryptosporidium parvum was 5.8 µM. Moreover, the Activity result in the data set on HCT-8 is reported as “Non-toxic”.

As for `CCc1nn(C)c2nc(-c3ccc(C#N)cc3)nc(NCc3ccc(F)cc3)c12`, the EC50 with Cryptosporidium parvum was more than 25 µM. For the same molecule, the Activity result in the data set on HCT-8 is given as “Non-toxic”.

`CCc1nn(C)c2ncnc(NCc3ccc(F)cc3)c12`: in the data set on Cryptosporidium parvum, the EC50 was more than 50 µM. The Activity result with HCT-8 was “Non-toxic”.

In the case of `CCc1nn(C)c2nc(-c3ccccc3)nc(NCc3ccc(F)cc3)c12`, the EC50 in the data set on Cryptosporidium parvum came to 16 µM. In addition, in the data set on HCT-8, the Activity entry was “Non-toxic”.

With `CCc1nn(C)c2nc(-c3ccncc3)nc(NCc3ccc(F)cc3)c12`, the EC50 with Cryptosporidium parvum was found to be 8.6 µM. For the same molecule, in the data set with HCT-8, the Activity entry is “Non-toxic”.

Consider `CCc1nn(C)c2nc(-c3ccc(C(=O)N4CCNCC4)cc3)nc(NCc3ccc(F)cc3)c12`, for which the EC50 with Cryptosporidium parvum was 5.7 µM. Further, in the data set on HCT-8, the Activity result was “Non-toxic”.

On to `CCc1nn(C)c2nc(C(=O)O)nc(NCc3ccc(F)cc3)c12`, for which the concentration for a half-maximal effect (EC50) with Cryptosporidium parvum is more than 50 µM. In addition, the Activity result in the data set with HCT-8 is on record as “Non-toxic”.

For `CCc1nn(C)c2nc(-c3cccc(S(N)(=O)=O)c3)nc(NCc3ccc(F)cc3)c12`, the EC50 in the data set on Cryptosporidium parvum was determined as 2.5 µM. The Activity result in the data set on HCT-8 is “Non-toxic”.

`CCc1nn(C)c2nc(-c3ccc4c(c3)COC4=O)nc(NCc3ccc(F)cc3)c12`: the EC50 with Cryptosporidium parvum is more than 50 µM. Moreover, the Activity result with HCT-8 is recorded as “Non-toxic”.

With `CCc1nn(C)c2nc(-c3ccc(F)c(C(=O)O)c3)nc(NCc3ccc(F)cc3)c12`, the EC50 in the data set on Cryptosporidium parvum was determined as 5.2 µM. The Activity entry in the data set with HCT-8 was “Non-toxic”.

On to `CCc1nn(C)c2nc(-c3ccc(CO)cc3)nc(NCc3ccc(F)cc3)c12`, for which, in the data set on Cryptosporidium parvum, the EC50 is 16 µM. Also, in the data set with HCT-8, the Activity entry was “Non-toxic”.

For the molecule `CCc1nn(C)c2nc(-c3c(C)noc3C)nc(NCc3ccc(F)cc3)c12`, the EC50 with Cryptosporidium parvum was 4.5 µM. The Activity entry in the data set on HCT-8 is reported as “Non-toxic”.

For `CCc1nn(C)c2nc(-c3ccc4c(c3)CNC4=O)nc(NCc3ccc(F)cc3)c12`, in the data set with Cryptosporidium parvum, the EC50 was more than 50 µM. Further, the Activity result in the data set with HCT-8 was “Non-toxic”.

As a reminder, the EC50 is the concentration giving half of the maximal effect.
